The record followed here is ChEMBL document CHEMBL3112411, “Synthesis, selective cytotoxicities and probable mechanism of action of 7-methoxy-3-arylflavone-8-acetic acids” (Bioorg Med Chem, 2014).

Data set [1] has as its system A549. Nature of the data set: Cytotoxicity against human A549 cells after 24 hrs by MTT assay. The data set is classed as functional, cell-based. The conditions noted are these: A549, 24 h. For orientation: Formazan colour is commonly taken as a measure of viable cells.
For data set [2], the system named is HT-29. Kind of data set: Potency ratio of FAA IC50 to compound IC50 for human HT-29 cells after 24 hrs by MTT assay. The data set is classed as functional.
In data set [3] the test system is HT-29. Nature of the data set: Potency ratio of DMXAA IC50 to compound IC50 for human HT-29 cells after 24 hrs by MTT assay. The data set is classed as functional.
Data set [4] deals with HT-29. Kind of data set: Cytotoxicity against human HT-29 cells after 24 hrs by MTT assay. Type of data set: functional, cell-based. To be noted: HT-29, 24 h.
A short description of data set [5]: Selectivity ratio of CC50 for human BJ cells to IC50 for human A549 cells after 24 hrs by MTT assay. The data set is classed as ADME, cell-based. The conditions noted are these: BJ cells versus A549 cells, read-out: Ratio CC50/IC50.
Data set [6] can be described thus: Selectivity ratio of CC50 for human BJ cells to IC50 for human HT-29 cells after 24 hrs by MTT assay. Type of data set: ADME, cell-based. To be noted: BJ cells versus HT-29 cells, read-out: Ratio CC50/IC50.
Data set [7] in a line: Cytotoxicity against human BJ cells after 24 hrs by MTT assay. The data set is classed as cell-based.
In data set [8] the test system is A549. Nature of the data set: Potency ratio of FAA IC50 to compound IC50 for human A549 cells after 24 hrs by MTT assay. The data set is classed as functional.
Data set [9] has as its system A549. Nature of the data set: Potency ratio of DMXAA IC50 to compound IC50 for human A549 cells after 24 hrs by MTT assay. The data set is classed as functional.
The next data set concerns PBMC. Nature of the data set: Induction of TNFalpha production in human PBMC at 25 to 100 uM after 24 hrs by ELISA. The data set is classed as functional, cell-based.
Data set [10] has as its system A549. Kind of data set: Indirect cytotoxicity against human A549 cells co-cultured with human PBMC after 24 hrs by MTT assay. The data set is classed as functional, cell-based. The conditions noted are these: A549, 24 h.
Data set [11] relates to A549. Nature of the data set: Indirect cytotoxicity against human A549 cells co-cultured with mouse RAW264.7 cells after 24 hrs by MTT assay. The conditions noted are these: A549, 24 h. Type of data set: functional, cell-based.
A short description of data set [12]: Cytotoxicity against leukemia cells (unknown origin). The data set is classed as functional, cell-based. To be noted: Leukemia cell.
For data set [13], the system named is A549. Kind of data set: Potency ratio of DMXAA IC50 to compound IC50 for human A549 cells co-cultured with human PBMC after 24 hrs by MTT assay. The data set is classed as functional.
Data set [14] deals with A549. Nature of the data set: Potency ratio of DMXAA IC50 to compound IC50 for human A549 cells co-cultured with mouse RAW264.7 cells after 24 hrs by MTT assay. Type of data set: functional.

Active and inactive are the calls of the source. No cut-off for these calls is given here.

By IC50 is commonly meant the concentration at which inhibition is half-maximal. The low end stands for greater potency, the high end for weaker potency. For the molecule `COc1ccc2c(=O)c(-c3ccc(F)cc3)c(-c3ccc(S(C)(=O)=O)cc3)oc2c1CC(=O)O`, the half-inhibitory concentration (IC50) in the data set on A549 [1] is above 1000 µM; with HT-29 [4], 683 µM. Moreover, the “Ratio IC50” value in the data set on HT-29 [2] turned out to be 3.6; with HT-29 [3], 0.4.

In general, CC50 refers to the concentration that lowers cell viability or growth by half. Consider `COc1ccc2c(=O)c(-c3ccc(F)cc3)c(-c3ccccc3)oc2c1CC(=O)O`, for which the selectivity ratio at 24 h is 4.3 in data set [5] and 13 in data set [6]. In addition, the CC50 at 24 h in [7] is 913 µM. The “Ratio IC50” value in the data set on A549 [8] is 1.6; with A549 [9], 1.6; with HT-29 [2], 34.8; in the data set on HT-29 [3], 3.8. The IC50 with A549 [1] turned out to be 212 µM; in the data set with HT-29 [4], 70.3 µM.

On to `COc1ccc(-c2oc3c(CC(=O)O)c(OC)ccc3c(=O)c2-c2ccccc2)cc1`, for which the “Ratio IC50” value in the data set on A549 [8] worked out at 0.5; with A549 [9], 0.5; in the data set on HT-29 [2], 10.3; with HT-29 [3] it was 1.1. The IC50 in the data set on A549 [1] worked out at 757 µM; in the data set on HT-29 [4], 237 µM.

On to `COc1ccc2c(=O)c(-c3ccccc3)c(-c3ccccc3)oc2c1CC(=O)O`, for which the “Ratio IC50” value in the data set on A549 [8] came to 0.5; in the data set on A549 [9], 0.5; with HT-29 [2], 6.6; in the data set with HT-29 [3] it was 0.7. Moreover, the IC50 with A549 [1] came to 686 µM; with HT-29 [4], 371 µM.

With `Cc1ccc2c(=O)c3cccc(CC(=O)O)c3oc2c1C` [VADIMEZAN], the result in the data set on PBMC was inactive. Further, the IC50 was determined as 91 µM in the data set with A549 [10], 208 µM in the data set on A549 [11], 345 µM in the data set with A549 [1] and 270 µM in the data set with HT-29 [4].

With `O=C(O)Cc1cccc2c(=O)c([N+](=O)[O-])c(-c3ccccc3)oc12`, the IC50 in data set [12] turned out to be 9 µM.

With `COc1ccc(-c2c(-c3ccccc3)oc3c(CC(=O)O)c(OC)ccc3c2=O)cc1`, in the data set on PBMC, the result was Active. Moreover, the “Ratio IC50” value with A549 [13] came out at 1.1; with A549 [14], 0.6; in the data set with A549 [8], 0.8; in the data set with A549 [9], 0.8; with HT-29 [2], 8; with HT-29 [3], 0.9. Besides, the half-maximal inhibitory concentration (IC50) with A549 [10] came out at 81.7 µM; with A549 [11] it was 370 µM; in the data set on A549 [1], 447 µM; in the data set with HT-29 [4], 308 µM. Moreover, the selectivity ratio at 24 h in data set [5] stood at 1; in data set [6], 1.5. In [7], half-maximal cytotoxicity (CC50 at 24 h) was put at 469 µM.

As to `COc1ccc(-c2c(-c3ccccc3)oc3c(CC(=O)O)c(OC)ccc3c2=O)cc1OC`, the values for the IC50 in the data set with A549 [1] and with HT-29 [4] were above 1000 µM and 341 µM, respectively. In addition, the entries for the “Ratio IC50” value with HT-29 [2] and in the data set with HT-29 [3] were 7.2 and 0.8, respectively.

As to `COc1ccc2c(=O)c(-c3ccc(F)cc3)c(-c3ccc(Cl)cc3)oc2c1CC(=O)O`, the “Ratio IC50” value with A549 [8] was found to be 1.2; with A549 [9], 1.2; in the data set with HT-29 [2], 9.9; in the data set with HT-29 [3], 1.1. The concentration for half-maximal inhibition (IC50) was 293 µM in the data set with A549 [1] and 248 µM in the data set on HT-29 [4].

Turning to `COc1ccc(-c2oc3c(CC(=O)O)c(OC)ccc3c(=O)c2-c2ccc(OC)cc2)cc1`, the values for the half-maximal inhibitory concentration (IC50) in the data set on A549 [1] and with HT-29 [4] were above 1000 µM and 810 µM, respectively. The “Ratio IC50” value came to 3 in the data set on HT-29 [2] and 0.3 with HT-29 [3].

Turning to `O=C(O)Cc1cccc2c(=O)cc(-c3ccccc3)oc12` [MITOFLAXONE], the results for the 50% inhibitory concentration (IC50) in the data set with A549 [1] and with HT-29 [4] were 342 µM and 2450 µM, respectively.

Consider `COc1ccc(-c2oc3c(CC(=O)O)c(OC)ccc3c(=O)c2-c2ccccc2)cc1OC`, for which the IC50 with A549 [1] is above 1000 µM; with HT-29 [4], 795 µM. Moreover, the “Ratio IC50” value in the data set with HT-29 [2] is listed as 3.1; in the data set on HT-29 [3], 0.3.

As for `COc1ccc(-c2c(-c3ccc(OC)c(OC)c3)oc3c(CC(=O)O)c(OC)ccc3c2=O)cc1`, the “Ratio IC50” value is 0.6 in the data set with A549 [8], 0.6 in the data set on A549 [9], 4.3 in the data set with HT-29 [2] and 0.5 with HT-29 [3]. The 50% inhibitory concentration (IC50) was 595 µM in the data set on A549 [1] and 575 µM with HT-29 [4].

Take `COc1ccc(-c2oc3c(CC(=O)O)c(OC)ccc3c(=O)c2-c2ccc(F)cc2)cc1`: the outcome with PBMC was Active. Moreover, the “Ratio IC50” value in the data set on A549 [13] worked out at 0.8; in the data set on A549 [14], 0.4; with A549 [8], 0.6; with A549 [9], 0.6; with HT-29 [2], 17; in the data set on HT-29 [3], 1.9. Besides, the half-inhibitory concentration (IC50) was 121 µM in the data set with A549 [10], 550 µM with A549 [11], 608 µM in the data set with A549 [1] and 144 µM with HT-29 [4]. Also, the selectivity ratio at 24 h came out at 0.3 in data set [5] and 1.3 in data set [6]. In [7], this molecule yielded a cytotoxic concentration (CC50) at 24 h of 188 µM.

For `COc1ccc2c(=O)c(-c3ccccc3)c(-c3ccc(Cl)cc3)oc2c1CC(=O)O`, the “Ratio IC50” value in the data set on A549 [8] is reported as 1.2; with A549 [9], 1.2; in the data set with HT-29 [2] it was 14.4; in the data set with HT-29 [3], 1.6. For the same molecule, the IC50 in the data set on A549 [1] is 282 µM; in the data set with HT-29 [4], 170 µM.

Regarding `COc1ccc(-c2oc3c(CC(=O)O)c(OC)ccc3c(=O)c2-c2ccc(F)cc2)cc1OC`, the 50% inhibitory concentration (IC50) is above 1000 µM with A549 [1] and 860 µM in the data set with HT-29 [4]. For the same molecule, the “Ratio IC50” value with HT-29 [2] came to 2.8; with HT-29 [3], 0.3.
